{"source": "patent US8802384B2", "about": "“Method or system using biomarkers for the monitoring of a treatment” (priority 2009, dated 2014)", "key": {"HUVEC cells": {"test_system": "HUVEC cells", "test": "HUVEC cells experiment: phospho-tyrosine level after VEGF, flow cytometry", "type": "cell-based, Human", "conditions": "exposure 3 h, 20 ng/ml VEGF 5 min; A1 and AG1478 1 and 5 μM, 5FU 1 and 5 mM; FIG. 1", "protocol": "FIG. 1: Effect of different compounds on the phospho-tyrosine level of HUVEC cells treated with VEGF. On the abscissa: 1 is the IgG control, untreated with VEGF and unexposed to an active ingredient; 2 is the control untreated with VEGF and unexposed to an active ingredient; 3 is the control treated with VEGF but unexposed to an active ingredient; 4 is treated with VEGF and exposed to 1 μM of compound A1; 5 is treated with VEGF and exposed to 5 μM of compound A1; 6 is treated with VEGF and exposed to 1 μM of compound AG1478; 7 is treated with VEGF and exposed to 5 μM of compound AG 1478; 8 is treated with VEGF and exposed to 1 mM of compound 5FU; 9 is treated with VEGF and exposed to 5 mM of compound 5FU. HUVEC cells were exposed to compound A1 (1 μM and 5 μM), to the EGFR inhibitor AG1478 (1 μM and 5 μM) and to 5FU (5-fluorouracile, 1 mM and 5 mM) for 3 h and 20 ng/ml of VEGF were added for 5 min before cell collection. Collected cells were washed twice by PBS and centrifugation (300 g, 5 min) in 50 μL of staining buffer. After removal of the supernatant by aspiration, cell pellets were lysed in 250 μL of fixation/permeabilization solution and kept for 20 min on ice. The PY-100 Alexa 488 antibody and phosphatase inhibitor were added. […] The data was obtained from Cell Quest software (BD) and analyzed by WinMDI 2.9 (free software)."}, "[1]": {"test_system": "VEGFR2^+pY^+ cells in murine peripheral blood", "test": "murine blood samples in vivo study (HepG2-inoculated mice), flow cytometry", "conditions": "50 or 100 mg/kg p.o. for 14 days"}, "[2]": {"test_system": "CD34^+CD45^dim peripheral blood cells", "test": "Phase I clinical study: CD133/CD117 subpopulations of CD34^+CD45^dim peripheral blood cells, flow cytometry", "type": "in vivo, human", "protocol": "Whole blood was collected on pre-treatment (day 1), and on day 2, day 8 and day 29 after treatment. The subpopulation of CD34^+CD45^dim peripheral blood cells identified from whole blood was further identified by cell surface markers of CD133 and CD117 using flow cytometry. Whole blood (800 μL) was supplemented with 4.5 mL of 0.2% BSA-PBS and centrifuged for 5 min (1500 rpm). After the removal of the supernatant by aspiration, 4.5 mL of 0.2% BSA-PBS was added and centrifuged. The cell pellet was mixed with 50 μL of human gamma-globulin. Antibodies (CD34-FITC, CD117-PE, CD45-PerCP and CD133-APC) were added and kept for 45 min at 4 C. An hemolytic agent (4.5 mL) was added and incubated for 10 min. After centrifugation (1500 rpm, 5 min), the supernatant was washed twice. Then, 0.2% BSA-PBS (4.5 mL) was added, and the supernatant was removed by centrifugation (1500 rpm, 5 min). The cell pellet was filled up to 800 μL with BSA-PBS and analyzed by flow cytometry. The percentage (quadrants) of CD34^+CD45^dimCD133+/−CD117+/− cells were analyzed."}, "[3]": {"conditions": "responders, not significant, FIG. 5A"}}, "data": [{"smiles": "CCS(=O)(=O)O.COC(=O)c1ccc2c(c1)NC(=O)/C2=C(\\Nc1ccc(N(C)C(=O)CN2CCN(C)CC2)cc1)c1ccccc1", "note": "[compound A1, 3-Z-[1-(4-(N-((4-methyl-piperazin-1-yl)-methylcarbonyl)-N-methyl-amino)-anilino)-1-phenyl-methylene]-6-methoxycarbonyl-2-indolinone-monoethanesulphonate]", "values": [{"measurement": "phospho-tyrosine levels of HUVEC cells", "setting": "HUVEC cells", "value": "suppressed"}, {"measurement": "number of VEGFR2^+CD45^dimpY^+ cells", "setting": "[1]; FIG. 2", "value": "seems to decrease"}, {"measurement": "VEGFR2^+pY^+ cells in murine peripheral blood", "setting": "[1]; FIG. 3", "value": "suppressed"}, {"measurement": "CD34^+CD45^dimCD133^+CD117^+ cells in responders (stable disease) compared to non-responders", "setting": "[2]; after treatment, RES n=12, PD n=4, FIG. 5B", "value": "tended to decrease"}, {"measurement": "percentage of CD34^+CD45^dimCD133^+CD117^+ cells", "setting": "[2]; patients with advanced solid tumors, day 29 compared with pre-treatment, p<0.001, FIG. 4A", "value": "significantly increased"}, {"measurement": "percentage of CD34^+CD45^dimCD133^−CD117^+ cells", "setting": "[2]; patients with advanced solid tumors, day 29 compared with pre-treatment, p<0.01, FIG. 4A", "value": "decreased"}, {"measurement": "CD34^+CD45^dimCD133^+ cells", "setting": "[2]; patients, day 29, FIG. 4B", "value": "significantly increased"}, {"measurement": "CD34^+CD45^dimCD117^+ cells", "setting": "[2]; patients, day Band day 29, FIG. 4C", "value": "significantly decreased"}, {"measurement": "CD34^+CD45^dimCD117^+ cells in responders (stable disease)", "setting": "[2]; [3]", "value": "tended to decrease"}, {"measurement": "CD34^+CD45^dimCD133^+ cells in responders (stable disease)", "setting": "[2]; [3]", "value": "tended to decrease"}]}]}
